This note sets out measurements from ChEMBL document CHEMBL3785070, “Synthesis and evaluation of novel opioid ligands with a C-homomorphinan skeleton” (Bioorg Med Chem, 2016).

In experiment [1] the target is T1, Delta-type opioid receptor (Homo sapiens, UniProt P41143). As to the kind of experiment: Displacement of [3H]DPDPE from human delta opioid receptor expressed in CHO cell membranes.
The target of experiment [2] is T2, Mu-type opioid receptor (Homo sapiens, UniProt P35372). As to the kind of experiment: Agonist activity at human mu opioid receptor expressed in CHO cell membranes by [35S]GTPgammaS binding assay. The experiment is classed as functional.
T2 sequence (P35372 whole entry): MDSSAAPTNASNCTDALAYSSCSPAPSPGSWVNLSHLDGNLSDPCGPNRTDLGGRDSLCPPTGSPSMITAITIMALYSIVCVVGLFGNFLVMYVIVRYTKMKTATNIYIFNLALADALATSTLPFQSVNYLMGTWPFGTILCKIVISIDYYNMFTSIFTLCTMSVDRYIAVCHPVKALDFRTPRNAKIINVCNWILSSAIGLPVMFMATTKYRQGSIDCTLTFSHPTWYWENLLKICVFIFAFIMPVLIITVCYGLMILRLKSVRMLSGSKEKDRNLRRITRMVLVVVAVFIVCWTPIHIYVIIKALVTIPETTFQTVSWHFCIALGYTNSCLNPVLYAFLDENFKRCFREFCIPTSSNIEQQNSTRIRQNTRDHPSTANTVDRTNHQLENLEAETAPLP
The target of experiment [3] is T3, Kappa-type opioid receptor (Homo sapiens, UniProt P41145). In words: Displacement of [3H]U-69,593 from human kappa opioid receptor expressed in CHO cell membranes.
T3 sequence (P41145 whole entry): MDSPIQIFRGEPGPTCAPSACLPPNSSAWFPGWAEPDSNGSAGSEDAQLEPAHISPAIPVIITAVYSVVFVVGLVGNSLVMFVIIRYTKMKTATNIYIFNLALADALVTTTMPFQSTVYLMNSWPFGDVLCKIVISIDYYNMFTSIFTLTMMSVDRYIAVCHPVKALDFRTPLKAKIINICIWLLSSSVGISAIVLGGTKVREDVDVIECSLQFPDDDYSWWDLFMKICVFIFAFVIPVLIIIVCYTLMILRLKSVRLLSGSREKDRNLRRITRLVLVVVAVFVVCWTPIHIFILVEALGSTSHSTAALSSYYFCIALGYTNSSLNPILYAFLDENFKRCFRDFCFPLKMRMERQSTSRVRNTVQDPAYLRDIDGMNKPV
Experiment [4] deals with T3, Kappa-type opioid receptor. As to the kind of experiment: Agonist activity at human kappa opioid receptor expressed in CHO cell membranes by [35S]GTPgammaS binding assay. The experiment is classed as functional.
Experiment [5] has as its target T1, Delta-type opioid receptor. As to the kind of experiment: Agonist activity at human delta opioid receptor expressed in CHO cell membranes by [35S]GTPgammaS binding assay. It counts as functional.
For experiment [6], the target named is T2, Mu-type opioid receptor. As to the kind of experiment: Displacement of [3H]DAMGO from human mu opioid receptor expressed in CHO cell membranes.
The target of experiment [7] is T3, Kappa-type opioid receptor. As to the kind of experiment: Agonist activity at human kappa opioid receptor expressed in CHO cell membranes by [35S]GTPgammaS binding assay relative to U-69,593. The experiment is classed as functional.
Experiment [8] concerns CHO. In words: Selectivity ratio of Ki for human kappa opioid receptor expressed in CHO cell membranes to Ki for human delta opioid receptor expressed in CHO cell membranes. It counts as cell-based.
In experiment [9] the test system is CHO. As to the kind of experiment: Selectivity ratio of Ki for human mu opioid receptor expressed in CHO cell membranes to Ki for human delta opioid receptor expressed in CHO cell membranes. The experiment is classed as cell-based.
Experiment [10] concerns the target T3, Kappa-type opioid receptor. In words: Agonist activity at human kappa opioid receptor expressed in CHO cell membranes at 10 uM by [35S]GTPgammaS binding assay relative to U-69,593. The experiment is classed as functional.
Experiment [11] addresses T1, Delta-type opioid receptor. As to the kind of experiment: Agonist activity at human delta opioid receptor expressed in CHO cell membranes by [35S]GTPgammaS binding assay relative to SNC80. It counts as functional.
The target of experiment [12] is T2, Mu-type opioid receptor. In words: Agonist activity at human mu opioid receptor expressed in CHO cell membranes by [35S]GTPgammaS binding assay relative to DAMGO. The experiment is classed as functional.
Experiment [13] has as its target T2, Mu-type opioid receptor. As to the kind of experiment: Agonist activity at human mu opioid receptor expressed in CHO cell membranes at 10 uM by [35S]GTPgammaS binding assay relative to DAMGO. It counts as functional.

SMILES strings stand for the structures. A value given as a limit tells only on which side of the number the result lay.

T1 sequence (P41143 whole entry): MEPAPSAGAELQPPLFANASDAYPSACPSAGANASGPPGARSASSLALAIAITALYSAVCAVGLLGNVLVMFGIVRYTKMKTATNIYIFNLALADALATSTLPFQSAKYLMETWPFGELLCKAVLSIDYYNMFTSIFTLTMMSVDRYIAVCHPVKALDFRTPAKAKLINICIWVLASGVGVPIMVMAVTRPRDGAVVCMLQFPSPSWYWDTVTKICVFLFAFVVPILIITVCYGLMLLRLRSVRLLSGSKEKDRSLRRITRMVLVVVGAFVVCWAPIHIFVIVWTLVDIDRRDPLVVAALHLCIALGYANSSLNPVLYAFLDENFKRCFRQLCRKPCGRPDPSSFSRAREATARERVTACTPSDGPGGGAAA

As to `Oc1ccc2c(c1)[C@]13CCN(CC4CC4)C(C2)[C@]1(O)Cc1c([nH]c2ccccc12)C3`, the inhibition constant Ki turned out to be 0.0945 nM in experiment [1], 2.97 nM in [3] and 24.7 nM at Mu-type opioid receptor [6]. Besides, the values for the EC50 (on Mu-type opioid receptor [2]; in [4]; in experiment [5]) were above 10000 nM, 3.76 nM and 1.4 nM, respectively.
Compound `O=C1C[C@]23CCN(CC4CC4)[C@H](Cc4ccc(O)cc42)[C@]3(O)CC/C1=C\c1ccccc1` yielded an Emax in [7] of 18.4%. For the same compound, the Ratio Ki came out at 14.1 with CHO [8] and 9 with CHO [9].
Regarding `O=C1CCC[C@@]2(O)[C@H]3Cc4ccc(O)cc4[C@@]2(CCN3CC2CC2)C1`, the Ratio Ki in the experiment with CHO [8] was found to be 0.062; with CHO [9], 0.057.
On to `O=C1C[C@]23CCN(CC4CC4)C(Cc4ccc(O)cc42)[C@]3(O)CC/C1=C\c1ccccc1`, for which the inhibition constant (Ki) in experiment [1] turned out to be 0.644 nM; in experiment [3], 9.11 nM; at Mu-type opioid receptor [6] it was 5.81 nM. The half-maximal effective concentration (EC50) in [4] was 14.7 nM; in experiment [5], above 10000 nM.
In experiment [10], `O=C1C[C@]23CCN(CC4CC4)[C@H](Cc4ccc(O)cc42)[C@]3(O)C/C1=C/c1ccccc1` returned an Activity of 30%. For the same compound, the maximal effect (Emax) in [11] is 40.8%; on Mu-type opioid receptor [12], 31.8%. The Ratio Ki amounted to 16.5 in the experiment on CHO [8] and 7.9 in the experiment on CHO [9]. Besides, the figures for the inhibition constant (Ki) (in experiment [1]; in experiment [3]; on Mu-type opioid receptor [6]) were 0.585 nM, 9.65 nM and 4.61 nM, respectively. Further, the EC50 at Mu-type opioid receptor [2] was 54.6 nM; in [4], above 10000 nM; in [5] it was 3.17 nM.
As to `Oc1ccc2c(c1)[C@]13CCN(CC4CC4)[C@H](C2)[C@]1(O)CCc1cc2ccccc2nc1C3`, the Emax was 43.9% in experiment [7], 104% in [11] and 31.2% on Mu-type opioid receptor [12]. Besides, the Ratio Ki with CHO [8] came out at 1.9; in the experiment with CHO [9], 7.7.
The corresponding values for `O=C1C[C@]23CCN(CC4CC4)[C@H](Cc4ccc(O)cc42)[C@]3(O)CC/C1=C/c1ccccc1` are 39.4%, 27%, 38.6%, 1.8 and 5.3.
Take `Oc1ccc2c(c1)[C@]13CCN(CC4CC4)C(C2)[C@]1(O)CCc1cc2ccccc2nc1C3`: the Ki in experiment [1] stood at 2.3 nM; in experiment [3], 4.3 nM; on Mu-type opioid receptor [6], 17.6 nM. For the same compound, the EC50 on Mu-type opioid receptor [2] was determined as 11.6 nM; in experiment [4] it was 28.4 nM; in experiment [5] it was 7.32 nM.
Turning to `O=C1CC[C@@]2(O)[C@H]3Cc4ccc(O)cc4[C@@]2(CCN3CC2CC2)C1`, the figures for the Ratio Ki in the experiment with CHO [8] and with CHO [9] were 0.25 and 0.29, respectively. Besides, the inhibition constant (Ki) stood at 2.62 nM in experiment [1], 0.648 nM in experiment [3] and 0.769 nM at Mu-type opioid receptor [6].
With `Oc1ccc2c(c1)[C@]13CCN(CC4CC4)C(C2)[C@]1(O)Cc1cc2ccccc2nc1C3`, the figures for the Ki (in experiment [1]; in experiment [3]; at Mu-type opioid receptor [6]) were 0.303 nM, 3.22 nM and 7.2 nM, respectively. Also, the results for the concentration for a half-maximal effect (EC50) (on Mu-type opioid receptor [2]; in [4]; in experiment [5]) were above 10000 nM, above 10000 nM and 0.813 nM, respectively.
Regarding `O=C1/C(=C/c2ccccc2)C[C@@]2(O)[C@H]3Cc4ccc(O)c5c4[C@@]2(CCN3CC2CC2)[C@H]1O5` [BNTX], the Ratio Ki in the experiment with CHO [8] turned out to be 8; in the experiment with CHO [9], 3. Further, the inhibition constant Ki was found to be 3.53 nM in experiment [1], 28.3 nM in [3] and 10.5 nM at Mu-type opioid receptor [6].
As to `Oc1ccc2c(c1)[C@]13CCN(CC4CC4)C(C2)[C@]1(O)CCc1c([nH]c2ccccc12)C3`, the values for the inhibitory constant (Ki) (in experiment [1]; in experiment [3]; on Mu-type opioid receptor [6]) were 0.531 nM, 6.63 nM and 5.75 nM, respectively. Further, the EC50 came out at 6.23 nM on Mu-type opioid receptor [2], 3.19 nM in experiment [4] and 1.06 nM in experiment [5].
Take `Oc1ccc2c(c1)[C@]13CCN(CC4CC4)[C@@H](C2)[C@]1(O)Cc1c([nH]c2ccccc12)C3`: the values for the Emax in experiment [7] and in experiment [11] were 15.4% and 38.9%, respectively. Also, the values for the Ratio Ki with CHO [8] and in the experiment on CHO [9] were 31.4 and 261, respectively. This compound also showed an Activity at Mu-type opioid receptor [13] of 33%.
Regarding `O=C1C[C@]23CCN(CC4CC4)C(Cc4ccc(O)cc42)[C@]3(O)CC/C1=C/c1ccccc1`, the inhibition constant (Ki) came out at 9.81 nM in experiment [1], 17.5 nM in [3] and 52.2 nM at Mu-type opioid receptor [6]. For the same compound, the half-maximal effective concentration (EC50) at Mu-type opioid receptor [2] worked out at 19.2 nM; in experiment [4], 21.4 nM; in experiment [5], 1.83 nM.
As for `Oc1ccc2c(c1)[C@]13CCN(CC4CC4)[C@H](C2)[C@]1(O)CCc1c([nH]c2ccccc12)C3`, the Emax in experiment [7] turned out to be 10%; in [11], 64.8%; at Mu-type opioid receptor [12], 23.5%. For the same compound, the Ratio Ki was found to be 12.5 in the experiment on CHO [8] and 10.8 in the experiment on CHO [9].
Consider `Oc1ccc2c(c1)[C@]13CCN(CC4CC4)[C@@H](C2)[C@]1(O)Cc1cc2ccccc2nc1C3`, for which the Activity amounted to 28.1% in experiment [10] and 20.8% on Mu-type opioid receptor [13]. Besides, the Emax in experiment [11] stood at 82.6%. The figures for the Ratio Ki in the experiment on CHO [8] and with CHO [9] were 10.7 and 23.8, respectively.
Turning to `O=C1CCC[C@@]2(O)C3Cc4ccc(O)cc4[C@@]2(CCN3CC2CC2)C1`, the Ki in experiment [1] stood at 12.1 nM; in experiment [3] it was 0.748 nM; at Mu-type opioid receptor [6], 0.692 nM.
`O=C1C[C@]23CCN(CC4CC4)[C@H](Cc4ccc(O)cc42)[C@]3(O)C/C1=C\c1ccccc1`: the maximal effect (Emax) in experiment [7] is 20.2%; in experiment [11], 37%. Further, the Ratio Ki with CHO [8] was 14.2; in the experiment with CHO [9], 8. For the same compound, the values for the Ki (in experiment [1]; in experiment [3]; at Mu-type opioid receptor [6]) were 2.76 nM, 39.1 nM and 22 nM, respectively. Moreover, the EC50 at Mu-type opioid receptor [2] was above 10000 nM; in experiment [4], 8.02 nM; in experiment [5], 12.5 nM. This compound also registered an Activity on Mu-type opioid receptor [13] of 25.6%.
